biological target: Human LDHA (Homo sapiens (Human), UniProt P00338); test: human LDHA primary biochemical assay (resazurin/diaphorase coupled, fluorescence); conditions: LDHA inhibitory activity, activity level based on IC50 (Table 7)
Text: Test compounds were placed in a Greiner Bio-One (Monroe, N.C.) 1536-well black solid bottom assay plate. 200 millimolar (mM) Tris HCl, pH 7.4, 100 micromolar […] EDTA and 0.01% TWEEN-20™, final concentration, was used as the assay buffer. The LDHA reagent was 2 nanomolar (nM) Human LDHA (Meridian Life Science, Inc., Memphis, Tenn.), final concentration, in assay buffer.

SMILES	IC50
NS(=O)(=O)c1ccc(Cc2c(-c3cccc(OCc4ccccc4)c3)nn(-c3nc(C(=O)O)cs3)c2CC2CC2)cc1 [Compound 339]	< 100 nM
NS(=O)(=O)c1ccc(Cc2c(-c3cccc(OCc4ccccc4)c3)nn(-c3nc(C(=O)O)cs3)c2CC2CC2)cc1F [Compound 340]	< 100 nM
NS(=O)(=O)c1ccc(Cc2c(-c3cccc(OCc4ccccc4)c3)nn(-c3nc(C(=O)O)cs3)c2CC2CC2)c(F)c1 [Compound 341]	< 100 nM
N[S+](=O)([O-])c1ccc(Cc2c(CC3CC3)nn(-c3nc(C(=O)O)cs3)c2-c2cccc(OCc3ccccc3)c2)cc1 [Compound 342]	1000 to 57000 nM
CCOC(=O)c1csc(-n2nc(-c3ccc(F)c(-c4ccc(C)cc4)c3)c(Cc3ccc(S(N)(=O)=O)c(F)c3)c2CC2CC2)n1 [Compound 343]	1000 to 57000 nM
CCOC(=O)c1csc(-n2nc(-c3cccc(-c4ccc(C)cc4)c3)c(Cc3ccc(S(N)(=O)=O)cc3F)c2CC2CC2)n1 [Compound 344]	> 57000 nM
CCOC(=O)c1csc(-n2nc(-c3ccc(F)c(-c4ccc(F)cc4)c3)c(Cc3ccc(S(N)(=O)=O)cc3F)c2CC2CC2)n1 [Compound 345]	1000 to 57000 nM
Cc1ccc(-c2cccc(-c3c(Cc4ccc([S+](N)(=O)[O-])c(F)c4)c(C4CC4)nn3-c3nc(C(=O)O)cs3)c2)cc1 [Compound 346]	1000 to 57000 nM
Cc1ccc(-c2cccc(-c3nn(-c4nc(C(=O)O)cs4)c(C4CC4)c3Cc3ccc(S(N)(=O)=O)c(F)c3)c2)cc1 [Compound 347]	< 100 nM
N[S+](=O)([O-])c1ccc(Cc2c(C3CC3)nn(-c3nc(C(=O)O)cs3)c2-c2cccc(-c3ccc(F)cc3)c2)cc1F [Compound 348]	1000 to 57000 nM

same assay, conditions: LDHA inhibitory activity, assay of Example 1; activity level classes

SMILES	IC50
NS(=O)(=O)c1ccc(Cc2c(-c3ccc(F)c(-c4cccc(F)c4)c3)nn(-c3nc(C(=O)O)cs3)c2C2CC2)c(F)c1 [Compound 255]	< 100 nM
COc1cccc(-c2cc(-c3nn(-c4nc(C(=O)O)cs4)c(C4CC4)c3Cc3ccc([S+](N)(=O)[O-])cc3F)ccc2F)c1 [Compound 256]	< 100 nM
CC#Cc1cccc(-c2nn(-c3nc(C(=O)O)cs3)c(CC3CC3)c2Cc2ccc(S(N)(=O)=O)c(F)c2)c1 [Compound 270]	< 100 nM
C#Cc1c(Cc2ccc(S(N)(=O)=O)cc2)c(-c2ccccc2)nn1-c1nc(C(=O)O)cs1 [Compound 271]	1000 to 57000 nM
CCOC(=O)c1csc(-n2nc(-c3ccccc3)c(Cc3ccc(S(N)(=O)=O)cc3)c2C2CC2)n1 [Compound 272]	> 57000 nM
CCOC(=O)c1csc(-n2nc(C3CCCCC3)c(Oc3ccc([S+](N)(=O)[O-])cc3)c2-c2ccccc2)n1 [Compound 273]	> 57000 nM
CCOC(=O)c1csc(-n2nc(-c3ccccc3)c(Oc3ccc([S+](N)(=O)[O-])cc3)c2C2CCCCC2)n1 [Compound 274]	> 57000 nM
COc1cc(-c2nn(-c3nc(C(=O)O)cs3)c(CC3CC3)c2Cc2ccc(S(N)(=O)=O)cc2)ccc1F [Compound 278]	< 100 nM
CCOC(=O)c1csc(-n2nc(-c3cccc(-c4ccccc4)c3)c(Cc3ccc(S(N)(=O)=O)cc3)c2CC2CC2)n1 [Compound 279]	1000 to 57000 nM
Cc1ccc(-c2cccc(-c3nn(-c4nc(C(=O)O)cs4)c(CC4CC4)c3Cc3ccc(S(N)(=O)=O)cc3F)c2)cc1 [Compound 282]	< 100 nM
Cc1ccc(-c2cc(-c3c(Cc4ccc(S(N)(=O)=O)cc4F)c(CC4CC4)nn3-c3nc(C(=O)O)cs3)ccc2F)cc1 [Compound 285]	1000 to 57000 nM
CCOC(=O)c1csc(-n2nc(-c3cccc(-c4ccccc4)c3)c(Cc3ccc(S(N)(=O)=O)cc3)c2C2(C(F)(F)F)CC2)n1 [Compound 297]	> 57000 nM
NS(=O)(=O)c1ccc(Cc2c(-c3cccc(-c4ccccc4)c3)nn(-c3nc(C(=O)O)cs3)c2C2(C(F)(F)F)CC2)cc1 [Compound 299]	1000 to 57000 nM
NS(=O)(=O)c1ccc(Cc2c(-c3cccc(-c4ccccc4)c3)nn(-c3nc(C(=O)O)cs3)c2C2(C(F)(F)F)CC2)c(F)c1 [Compound 300]	100 to 1000 nM
NS(=O)(=O)c1ccc(Cc2c(-c3cccc(-c4ccccc4)c3)nn(-c3nc(C(=O)O)cs3)c2C2(C(F)(F)F)CC2)cc1F [Compound 302]	1000 to 57000 nM
Cc1ccc(-c2cccc(-c3nn(-c4nc(C(=O)O)cs4)c(C(F)(F)F)c3Cc3ccc(S(N)(=O)=O)cc3)c2)cc1 [Compound 311]	< 100 nM

SMILES	IC50
N[S+](=O)([O-])c1ccc(Cc2c(-c3cccc(-c4ccc(F)cc4)c3)nn(-c3nc(C(=O)O)cs3)c2C(F)(F)F)cc1 [Compound 312]	< 100 nM
N[S+](=O)([O-])c1ccc(Cc2c(-c3cccc(-c4cccc(F)c4)c3)nn(-c3nc(C(=O)O)cs3)c2C(F)(F)F)cc1 [Compound 313]	< 100 nM
COc1cccc(-c2cccc(-c3nn(-c4nc(C(=O)O)cs4)c(C(F)(F)F)c3Cc3ccc(S(N)(=O)=O)cc3)c2)c1 [Compound 314]	< 100 nM
CCOC(=O)c1csc(-n2nc(CC3CC3)c(Cc3ccc(S(N)(=O)=O)cc3F)c2-c2ccc(F)c(-c3cccc(F)c3)c2)n1 [Compound 315]	> 57000 nM
CCOC(=O)c1csc(-n2nc(-c3ccc(F)c(-c4cccc(F)c4)c3)c(Cc3ccc(S(N)(=O)=O)cc3F)c2CC2CC2)n1 [Compound 316]	1000 to 57000 nM
CCOC(=O)c1csc(-n2nc(CC3CC3)c(Cc3ccc(S(N)(=O)=O)c(F)c3)c2-c2ccc(F)c(-c3cccc(F)c3)c2)n1 [Compound 317]	> 57000 nM
CCOC(=O)c1csc(-n2nc(-c3ccc(F)c(-c4cccc(F)c4)c3)c(Cc3ccc(S(N)(=O)=O)c(F)c3)c2CC2CC2)n1 [Compound 318]	> 57000 nM
CCOC(=O)c1csc(-n2nc(CC3CC3)c(Cc3ccc(S(N)(=O)=O)cc3F)c2-c2ccc(F)c(-c3cccc(OC)c3)c2)n1 [Compound 319]	> 57000 nM
CCOC(=O)c1csc(-n2nc(-c3ccc(F)c(-c4cccc(OC)c4)c3)c(Cc3ccc(S(N)(=O)=O)cc3F)c2CC2CC2)n1 [Compound 320]	> 57000 nM
CCOC(=O)c1csc(-n2nc(CC3CC3)c(Cc3ccc(S(N)(=O)=O)c(F)c3)c2-c2ccc(F)c(-c3cccc(OC)c3)c2)n1 [Compound 321]	> 57000 nM
CCOC(=O)c1csc(-n2nc(-c3ccc(F)c(-c4cccc(OC)c4)c3)c(Cc3ccc(S(N)(=O)=O)c(F)c3)c2CC2CC2)n1 [Compound 322]	1000 to 57000 nM
N[S+](=O)([O-])c1ccc(Cc2c(CC3CC3)nn(-c3nc(C(=O)O)cs3)c2-c2ccc(F)c(-c3cccc(F)c3)c2)cc1F [Compound 325]	1000 to 57000 nM
COc1cccc(-c2cc(-c3nn(-c4nc(C(=O)O)cs4)c(CC4CC4)c3Cc3ccc(S(N)(=O)=O)cc3F)ccc2F)c1 [Compound 328]	< 100 nM
CCOC(=O)c1csc(-n2nc(-c3cccc(OC4CCCC4)c3)c(Cc3ccc(S(N)(=O)=O)c(F)c3)c2CC2CC2)n1 [Compound 333]	1000 to 57000 nM
CCOC(=O)c1csc(-n2nc(-c3cccc(OC4CCCC4)c3)c(Cc3ccc(S(N)(=O)=O)cc3F)c2CC2CC2)n1 [Compound 335]	1000 to 57000 nM

same assay, conditions: read-out: Inhibitory activity IC50

IC50	SMILES
1000 to 57000 nM	N[S+](=O)([O-])c1ccc(Cc2c(Cc3ccccc3)nn(-c3nc(C(=O)O)cs3)c2-c2ccccc2)cc1 [Compound 275]
1000 to 57000 nM	COc1cc(-c2c(Cc3ccc([S+](N)(=O)[O-])cc3)c(CC3CC3)nn2-c2nc(C(=O)O)cs2)ccc1F [Compound 277]
1000 to 57000 nM	Cc1ccc(-c2cccc(-c3c(Cc4ccc([S+](N)(=O)[O-])cc4)c(CC4CC4)nn3-c3nc(C(=O)O)cs3)c2)cc1 [Compound 280]
1000 to 57000 nM	Cc1ccc(-c2cc(-c3c(Cc4ccc([S+](N)(=O)[O-])cc4)c(CC4CC4)nn3-c3nc(C(=O)O)cs3)ccc2F)cc1 [Compound 283]
1000 to 57000 nM	Cc1ccc(-c2cccc(-c3c(Cc4ccc([S+](N)(=O)[O-])c(F)c4)c(CC4CC4)nn3-c3nc(C(=O)O)cs3)c2)cc1 [Compound 286]
1000 to 57000 nM	Cc1ccc(-c2cc(-c3c(Cc4ccc([S+](N)(=O)[O-])c(F)c4)c(CC4CC4)nn3-c3nc(C(=O)O)cs3)ccc2F)cc1 [Compound 287]
1000 to 57000 nM	N[S+](=O)([O-])c1ccc(Cc2c(CC3CC3)nn(-c3nc(C(=O)O)cs3)c2-c2cccc(-c3ccccc3)c2)c(F)c1 [Compound 289]
1000 to 57000 nM	N[S+](=O)([O-])c1ccc(Cc2c(CC3CC3)nn(-c3nc(C(=O)O)cs3)c2-c2cccc(-c3ccccc3)c2)cc1F [Compound 291]
1000 to 57000 nM	N[S+](=O)([O-])c1ccc(Cc2c(CC3CC3)nn(-c3nc(C(=O)O)cs3)c2-c2ccc(F)c(-c3ccc(F)cc3)c2)cc1 [Compound 292]
1000 to 57000 nM	N[S+](=O)([O-])c1ccc(Cc2c(CC3CC3)nn(-c3nc(C(=O)O)cs3)c2-c2ccc(F)c(-c3ccc(C4CC4)cc3)c2)cc1 [Compound 293]
1000 to 57000 nM	N[S+](=O)([O-])c1ccc(Cc2c(CC3CC3)nn(-c3nc(C(=O)O)cs3)c2-c2ccc(F)c(Br)c2)cc1 [Compound 295]
1000 to 57000 nM	N[S+](=O)([O-])c1ccc(Cc2c(C3(C(F)(F)F)CC3)nn(-c3nc(C(=O)O)cs3)c2-c2cccc(-c3ccccc3)c2)cc1F [Compound 301]
1000 to 57000 nM	N[S+](=O)([O-])c1ccc(Cc2c(CC(F)(F)F)nn(-c3nc(C(=O)O)cs3)c2-c2cccc(-c3ccccc3)c2)cc1 [Compound 303]
1000 to 57000 nM	CC(C)c1ccc(-c2cc(-c3c(Cc4ccc([S+](N)(=O)[O-])cc4)c(CC4CC4)nn3-c3nc(C(=O)O)cs3)ccc2F)cc1 [Compound 305]
1000 to 57000 nM	N[S+](=O)([O-])c1ccc(Cc2c(CC3CC3)nn(-c3nc(C(=O)O)cs3)c2-c2ccc(F)c(-c3ccc(F)cc3)c2)c(F)c1 [Compound 308]
1000 to 57000 nM	N[S+](=O)([O-])c1ccc(Cc2c(CC3CC3)nn(-c3nc(C(=O)O)cs3)c2-c2ccc(F)c(-c3cccc(F)c3)c2)c(F)c1 [Compound 323]
1000 to 57000 nM	COc1cccc(-c2cc(-c3c(Cc4ccc([S+](N)(=O)[O-])c(F)c4)c(CC4CC4)nn3-c3nc(C(=O)O)cs3)ccc2F)c1 [Compound 329]

— US10961200B2, “Small molecule inhibitors of lactate dehydrogenase and methods of use thereof” (THE UNITED STATES OF AMERICA, AS REPRESENTED BY THE …, priority 2014, dated 2021)
